Test results from patent US6974885B2, “Method for isolating pharmaceutically exploitable etidronate disodium” (Schering AG, priority 2000, dated 2005).
Counter-ions that a name gives are not always drawn.

Columns and labels:
[1] = Particle size analysis (RETSCH screen analysis); type: physicochemical; conditions: for particle size distribution, fraction 0.1-0.2 mm / particle size distribution, fraction 0.1 mm / particle size distribution, fraction 0.2-0.5 mm / particle size distribution, fraction 0.5-0.8 mm / particle size distribution, fraction 0.8-1.0 mm / particle size distribution, fraction 1.0 mm: end product; for particle size distribution, fraction 0.1-0.2 mm: screen fraction 0.1-0.2 mm; for particle size distribution, fraction 0.1 mm: screen fraction 0.1 mm; for particle size distribution, fraction 0.2-0.5 mm: screen fraction 0.2-0.5 mm; for particle size distribution, fraction 0.5-0.8 mm: screen fraction 0.5-0.8 mm; for particle size distribution, fraction 0.8-1.0 mm: screen fraction 0.8-1.0 mm; for particle size distribution, fraction 1.0 mm: screen fraction 1.0 mm
Source text: A RETSCH screen analysis system was used.

[2] = Bulk density determination (graduated cylinder, unshaken); type: physicochemical; conditions: end product
Experimental: Bulk Density Determination Bulk density was determined by means of a graduated cylinder (unshaken).

[3] = cited from earlier work

Row | particle size distribution, fraction 0.1-0.2 mm [1] | particle size distribution, fraction 0.1 mm [1] | particle size distribution, fraction 0.2-0.5 mm [1] | particle size distribution, fraction 0.5-0.8 mm [1] | particle size distribution, fraction 0.8-1.0 mm [1] | particle size distribution, fraction 1.0 mm [1] | bulk density [2] | particles <0.1 mm ([1]; maximum share of all particles) | particles >1 mm ([1]; maximum share of all particles) | Structure (SMILES) | solubility in organic solvents ([3]; all organic solvents) | water solubility ([3]; water)
1 | 23.8% | 0.07% | 27.3% | 46.2% | 2.16% | 0.47% | 0.48 g/mL | – | – | CC(O)(P(=O)(O)O)P(=O)(O)O [Example 1, etidronate disodium] | – | –
2 | 0.07% | 0.0% | 19.7% | 54.9% | 15.6% | 9.71% | 0.51 g/mL | – | – | CC(O)(P(=O)(O)O)P(=O)(O)O [Example 2, etidronate disodium] | – | –
3 | – | – | – | – | – | – | 0.4 to 0.6 g/mL | ≤ 5 wt. % | ≤ 10 wt. % | CC(O)(P(=O)(O)O)P(=O)(O)O [etidronate disodium, disodium salt of hydroxyethane-1,1-diphosphonicacid] | nearly insoluble | high water solubility
